Test results reported in paper PMC10213797 (Acta Pharmaceutica Sinica. B, 2023).

Tests used:
hBChE [1] = molecular target: T1, hBChE (Homo sapiens, UniProt P06276); assay: hBChE inhibition, Ellman's method; assay type: biochemical; details: hBChE IC50, abstract
hBChE [2] = molecular target: T1, hBChE; assay: hBChE inhibition kinetics, progress curves of BTCI hydrolysis; assay type: biochemical; details: 50 μmol/L BTCI, 25 °C, pH 7.0
[3] = molecular target: T2, purified recombinant hMAO-B (Homo sapiens, UniProt P27338); assay: hMAO-B steady-state kinetics, direct MMTP assay; assay type: biochemical; details: MMTP substrate
T2 sequence (P27338 1-520): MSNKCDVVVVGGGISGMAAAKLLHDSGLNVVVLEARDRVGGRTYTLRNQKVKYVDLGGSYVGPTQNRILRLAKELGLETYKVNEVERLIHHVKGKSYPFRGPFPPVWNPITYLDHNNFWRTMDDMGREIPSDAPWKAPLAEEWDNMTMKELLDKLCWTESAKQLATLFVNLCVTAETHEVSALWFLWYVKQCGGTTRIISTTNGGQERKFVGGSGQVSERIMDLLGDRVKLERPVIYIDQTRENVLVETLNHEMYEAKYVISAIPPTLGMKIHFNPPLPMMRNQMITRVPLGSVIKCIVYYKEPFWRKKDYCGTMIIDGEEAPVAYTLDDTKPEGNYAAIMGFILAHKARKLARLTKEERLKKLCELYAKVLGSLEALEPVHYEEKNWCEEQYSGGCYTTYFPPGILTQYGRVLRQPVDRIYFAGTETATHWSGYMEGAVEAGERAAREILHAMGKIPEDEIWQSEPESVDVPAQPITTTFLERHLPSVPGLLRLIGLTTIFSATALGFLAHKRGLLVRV

[4] = DPPH radical-scavenging assay; details: read-out: Radical-scavenging DPPH assay EC50; means ± SEM (n = 2, in triplicates)
Aβ1–42 = Aβ1–42 (Homo sapiens, UniProt P05067); assay: Aβ1–42 aggregation inhibition, ThT fluorescence assay; assay type: biochemical
Chain of Aβ1–42 (P05067 672-713): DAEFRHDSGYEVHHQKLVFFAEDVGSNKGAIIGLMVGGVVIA

[5] = Metal chelation, UV–Vis spectra and Cu2+ titration; assay type: physicochemical; details: 30 μmol/L QN, equimolar metal ion, HEPES pH 7.4
SH-SY5Y cells = assay: Metabolic activity, MTS assay, SH-SY5Y; assay type: cell-based; details: 24 h, 1–100 μmol/L
HepG2 cells = assay: Metabolic activity, MTS assay, HepG2; assay type: cell-based; details: HepG2, 24 h, 1–100 μmol/L
microglial BV2 cells = assay: Cytotoxicity, 7-AAD flow cytometry, BV2; assay type: cell-based; details: at 10 μmol/L; sentence does not say which of SH-SY5Y/BV2
[6] = tested on: SH-SY5Y cells treated with 6-OHDA; assay: Neuroprotection against 6-OHDA toxicity, 7-AAD; assay type: cell-based; details: 100 μmol/L 6-OHDA
LPS-activated BV2 cells [7] = assay: Neuroprotection in LPS-induced BV2 neuroinflammation model, 7-AAD; assay type: cell-based; details: BV2, LPS 1 μg/mL, 19 at 0.5–5 μmol/L
LPS-activated BV2 cells [8] = assay: Nitrite quantification, Griess assay, LPS-stimulated BV2; assay type: cell-based; details: BV2, LPS 1 μg/mL, 19 at 5 μmol/L
mice = assay: Rotarod test; assay type: in vivo; details: 30 mg/kg i.p.; 6, 18, and 24 rpm
BBB-PAMPA permeability = details: PAMPA, pH 7.4, BBB–PAMPA permeability Papp (mean ± SD), pH 7.4, 4 h, 25 °C, brain sink buffer
[9] = tested on: APPSwe/PS1δE9 double transgenic mice; assay: Aβ plaque load after chronic treatment, Thioflavin S staining; details: male and female mice at 10 months of age, 0.62 mg/kg/day, 4-month treatment

T1 sequence (P06276 29-602): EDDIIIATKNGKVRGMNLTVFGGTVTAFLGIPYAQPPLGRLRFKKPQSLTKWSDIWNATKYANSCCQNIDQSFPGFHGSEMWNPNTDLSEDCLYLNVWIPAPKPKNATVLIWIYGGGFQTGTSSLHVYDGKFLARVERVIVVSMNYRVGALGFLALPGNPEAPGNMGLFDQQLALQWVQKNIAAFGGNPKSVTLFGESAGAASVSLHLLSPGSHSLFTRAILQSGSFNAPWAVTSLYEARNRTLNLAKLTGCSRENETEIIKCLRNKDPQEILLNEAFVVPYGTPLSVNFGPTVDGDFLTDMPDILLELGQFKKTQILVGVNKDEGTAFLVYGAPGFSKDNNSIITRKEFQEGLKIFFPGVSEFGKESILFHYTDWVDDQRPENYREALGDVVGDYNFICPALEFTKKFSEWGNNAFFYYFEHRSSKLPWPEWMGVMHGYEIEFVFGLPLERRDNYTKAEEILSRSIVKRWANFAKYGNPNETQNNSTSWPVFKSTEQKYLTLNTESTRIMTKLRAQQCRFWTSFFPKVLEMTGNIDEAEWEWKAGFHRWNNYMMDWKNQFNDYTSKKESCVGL

## [O-]/[N+](=C\c1ccc2cccc(O)c2n1)Cc1ccccc1 [QN 19, (Z)-N-Benzyl-1-(8-hydroxyquinolin-2-yl)methanimine oxide]
hBChE [1]
  IC50: 0.00106 ± 0.00031 µM
hBChE [2]
  Kii, dissociation constant for binding of the second molecule to hBChE: 14.5 nmol/L
[3]
  mode of hMAO-B inhibition (best fit): competitive inhibition model
[4]
  EC50: 126 ± 0.1 µM
Aβ1–42; 10 μmol/L ligand and 1.5 μmol/L Aβ1–42, mean ± SD (n ≥ 3)
  Inhibition of Aβ1–42 aggregation: n.i. ^e (n.i., no inhibition <20%)
Aβ1–42; ThT fluorescence assay
  inhibition of self-induced aggregation of Aβ1–42 (in words): inactive
[5]
  chelation of Ca^2+ and Mg^2+: did not chelate
  complexes with Zn^2+, Cu^2+, Al^3+, Fe^2+ and Fe^3+: generated corresponding complexes
SH-SY5Y cells
  concentrations at which metabolic activity is reduced (MTS): higher than 10 μmol/L
HepG2 cells
  concentrations at which metabolic activity is reduced (MTS): higher than 10 μmol/L
Microglial BV2 cells
  cell viability (7-AAD): reduced cell viability to a significant extent
[6]; 19 at 0.5 and 1 μmol/L
  cell viability under 6-OHDA co-treatment: increased cell viability
[6]; 19 at 2.5 and 5 μmol/L
  neuroprotective activity under 6-OHDA co-treatment: neuroprotective activity was lost
LPS-activated BV2 cells [7]
  neuroprotective effects on cell viability, LPS model: No neuroprotective effects on cell viability
LPS-activated BV2 cells [8]
  LPS-induced nitrite concentration: reduced LPS-induced increase in nitrite concentration
mice
  motor impairments in the rotarod test: did not result in any motor impairments
BBB-PAMPA permeability
  Papp at 4 h, 100 μmol/L: ≥ 37.2 ×10⁻⁶ cm/s
[9]
  effect on Aβ plaques of chronic treatment started later: inefficient
